Marks after values point to notes of the source that are not given here.
Key:
[1] = tested on: proinflammatory cytokine induced CRP production by human hepatoma cell line PLC/PRF/5; experiment: CRP production by cytokine stimulated human hepatoma PLC/PRF/5 cells, CRP ELISA of cell media (Example 16); assay type: cell-based; conditions: 10 ng/ml IL-6, 1 ng/ml IL-1, 1 μM dexamethasone, 24 hours, FIG. 1
Excerpt: As noted above dialkyl ethers are useful for inhibiting proinflammatory cytokine induced CRP production. Studies have shown that the acute phase response can be recapitulated in cultured human hepatoma cells stimulated with the pro-inflammatory cytokines IL-6 and IL-1 in the presence of the corticosteroid Dexamethasone (Lozanski G, Berthier F, and Kushner I, 1997; Biochem J. 328:271-275). Using a similar hepatoma cell system we evaluated the effect 6,6′-oxybis(2,2-dimethylhexanoic acid) on CRP production by cytokine stimulated human hepatoma PLC/PRF/5 cells. […]
CRP protein concentrations were determined using a CRP ELISA Kit (Alpha Diagnostic International, Inc. San Antonio, Tex. USA (Cat. No.1000)). […] At the end of this incubation a 50 μl stop solution (as described by the manufacturer of the CRP kit) was added to each well and the plate was used to measure absorbance at 450 nm in a Spectra Max Plus, Molecular Devices spectrophotometer.
A CRP standard curve (in ng/ml) was generated by determining 450 nm absorbance values for different amounts of a standard CRP solution, provided by the vendor of the CRP kit, and correcting these values by subtracting the 450 nm absorbance of zero CRP control samples. CRP determinations in experimental samples was done as follows: 10 μl cell media samples in duplicates or triplicates were used to determine 450 nm absorbance. […]

[2] = tested on: CRP; experiment: Randomized, double-blind, placebo-controlled dose-response study in patients with HDL-C <35 mg/dL, 12 weeks; CRP by high sensitivity immunonephelometry (Example 15); assay type: in vivo, human; conditions: for levels of CRP reduced by: 900 mg/day; for % change in CRP levels from base line: median percent change
Procedure: As noted above, the dialkyl ethers of this invention are useful for lowering plasma CRP levels. The ability of a dialkylether to lower plasma CRP levels was determined using in vivo studies routinely utilized by those skilled in the art.
A randomized, double-blind, placebo-controlled, parallel group, dose-response, multicenter study was conducted at 11 centers in the United States and one center in Canada. Eligible patients with HDL-C level<35 mg/dL (0.9 mmol/L) were selected following a 6-week, single-blind placebo, dietary lead in period conducted according to National Cholesterol Education Program (NCEP) Step 1 Diet. The NCEP Step 1 Diet guidelines are as follows:
Eligible patients with HDL-C level<35 mg/dL (0.9 mmol/L) were stratified according to whether mean serum TG level measured at both 2 and 4 weeks prior to randomization was <200 mg/dL (2.3 mmol/L) or ≧200 mg/dL (2.3 mmol/L). Within each TG stratum, patients were randomized to receive either 150, 300, 600, or 900 mg of 6,6′-oxybis(2,2-dimethylhexanoic acid) calcium saltor placebo daily (QD) for 12 weeks.
Eligible patients were women of non-childbearing potential (naturally postmenopausal or surgically sterilized) or men 18 to 80 years of age with a baseline HDL-C<35 mg/dL. Patients were excluded if they had creatine phosphokinase (CPK)>3 times the upper limit of normal (ULN), a body mass index>35 kg/m^2, uncontrolled hypertension defined as sitting diastolic blood pressure>95 mm Hg whether taking or not taking an acceptable antihypertensive medication, uncontrolled diabetes mellitus (HbA1C>10%), hepatic dysfunction including asparate aminotransferase (AST) or alanine aminotransferase (ALT)>2 times ULN, renal dysfunction as defined by blood urea nitrogen (BUN) or creatinine>2 times ULN or uncontrolled hypothyroidism (thyroid stimulating hormone>1.5 times ULN). Also excluded were those with a history of gall bladder disease or pancreatitis, a history of consuming>14 alcoholic drinks per week, or those with a known hypersensitivity to lipid-altering drugs. Patients who had myocardial infarction, severe or unstable angina pectoris, coronary artery bypass graft or any other cardiovascular event requiring hospitalization within the last 3 months were also excluded from the study. Patients were not permitted any other lipid-altering drugs during the course of the study and if on prestudy lipid-altering drug therapy, were required to undergo an additional 4-week washout period. Use of isotretinoin, insulin, warfarin, immunosuppressive agents and intermittent systemic steroids were also prohibited.
All blood samples were collected following a 12-hour fast and analyzed using methods well known to one of skill in the art; these methods are described briefly as follows. Serum concentrations of cholesterol and triglycerides were measured using an enzymatic, colorimetric assay on a Hitachi 747 analyzer. The HDL-C samples were obtained from the supernatant after precipitation of the non-HDL lipoproteins using heparin and manganese chloride. Concentrations of CRP were measured using immunonephelometry on a nephelometer (Dade Behring, Marburg, Germany). The high sensitivity assay was used to measure CRP (Dade Behring, Marburg, Germany).
Within each TG stratum, an ANCOVA model with the effects of baseline CRP value, treatment, and site was used to analyze the percent change from baseline at the last visit for CRP by producing least squares (LS) means and p-values. p-values were unadjusted for multiplicity.
The Shapiro-Wilk Test for Normality and visual analysis of the residuals was used to determine if the assumption of normality was reasonable. Since CRP levels in all patients were not normally distributed, median percent changes are presented and Conover's nonparametric ANCOVA was used to analyze the ranked data.

[3] = tested on: CRP; experiment: Randomized, double-blind, placebo-controlled dose-response study in hypercholesterolemic patients, 8-week treatment; CRP by high sensitivity assay (Example 17); assay type: in vivo, human; conditions: mean of 6 and 8 week CRP level, placebo 9.4% increase
Procedure: A randomized, double-blind, placebo-controlled, parallel group, dose-response, multicenter study was conducted in hypercholesterolemic patients. The study had three periods: (1) a lipid medication wash-out visit if needed; (2) a qualifying period; and (3) an 8-week double-blind treatment period. The data discussed below is from a portion of a larger study.
Patients with significant cardiac, renal (creatinine>2.0 mg/dL) or liver (alanine aminotransferase [ALT] or aspartate aminotransferase [AST]>1.5× upper limit of normal [ULN]) disease, unexplained CPK levels>3×ULN, body mass index [BMI]>38 kg/m^2, triglycerides [TG]>400 mg/dL, or age>70 years are excluded as are women who are of childbearing potential, pregnant or lactating. A subset of eligible patients was randomized to receive placebo, 300, 600 or 900 mg/day of 6,6′-oxybis(2,2-dimethylhexanoic acid) calcium salt. Each of these groups had 13 to 15 patients.
Blood samples were collected at week −2, week −1, randomization and every two weeks thereafter. CRP levels were determined using a high sensitivity assay as in example 15. The mean of the 6 and the 8 week CRP level was calculated for each patient. Values>10 were not included in the analysis as these values are indicative of acute inflammation. For each dosage group the median of the mean values was determined. These median numbers were compared with median CRP values at baseline. Percent change from baseline in CRP levels due to the administration of 300, 600, 900 mg/day of 6,6′-oxybis(2,2-dimethylhexanoic acid) calcium salt or placebo is shown in FIG. 2. At the 300, 600 and 900 mg doses the levels of CRP were reduced by 26% (p=0.16 vs placebo), 42% (p<0.01 vs placebo) and 35% (p<0.01 vs placebo) respectively, compared to a 9.4% increase in the placebo group.

Compound | doses that effectively inhibited proinflammatory cytokine induced CRP production [1] | reduction in the CRP level ([2]; 600 mg/day, <200 mg/dL TG stratum, not statistically significant) | CRP level reduced by ([2]; 600 mg/day, ≧200 mg/dL TG stratum, p<0.05 vs Placebo) | levels of CRP reduced by ([2]; <200 mg/dL TG stratum, p<0.05 vs Placebo) | levels of CRP reduced by ([2]; ≧200 mg/dL TG stratum, p<0.001 vs placebo) | % change in CRP levels from base line ([2]; patients TG < 200 mg/dL, 150 mg daily (QD) for 12 weeks) | % change in CRP levels from base line ([2]; patients TG < 200 mg/dL, 300 mg daily (QD) for 12 weeks) | % change in CRP levels from base line ([2]; patients TG < 200 mg/dL, 600 mg daily (QD) for 12 weeks, not statistically significant) | % change in CRP levels from base line ([2]; patients TG < 200 mg/dL, 900 mg daily (QD) for 12 weeks, p < 0.05 versus placebo) | % change in CRP levels from base line ([2]; patients TG ≧ 200 mg/dL, 150 mg daily (QD) for 12 weeks) | % change in CRP levels from base line ([2]; patients TG ≧ 200 mg/dL, 300 mg daily (QD) for 12 weeks) | % change in CRP levels from base line ([2]; patients TG ≧ 200 mg/dL, 600 mg daily (QD) for 12 weeks, p < 0.05 versus placebo) | % change in CRP levels from base line ([2]; patients TG ≧ 200 mg/dL, 900 mg daily (QD) for 12 weeks, p < 0.001 versus placebo) | levels of CRP reduced by (median percent change from baseline) ([3]; 300 mg/day, p=0.16 vs placebo) | levels of CRP reduced by (median percent change from baseline) ([3]; 600 mg/day, p<0.01 vs placebo) | levels of CRP reduced by (median percent change from baseline) ([3]; 900 mg/day, p<0.01 vs placebo)
CC(C)(CCCCOCCCCC(C)(C)C(=O)O)C(=O)O [6,6′-oxybis(2,2-dimethylhexanoic acid), 6,6′-Oxybis-(2,2-dimethylhexanoic acid)] | ≥ 500 µM | – | – | – | – | – | – | – | – | – | – | – | – | – | – | –
CC(C)(CCCCOCCCCC(C)(C)C(=O)[O-])C(=O)[O-].[Ca+2] [6,6′-oxybis(2,2-dimethylhexanoic acid), calcium salt] | – | 58% | 29% | 54% | 57% | −14.3% | −16.0% | −58.3% | −53.8* % | −22.2% | −16.2% | −28.6* % | −57.1** % | 26% | 42% | 35%

Source: US20040167229A1, “Method of lowering CRP and reducing systemic inflammation” (priority 2002, published 2004)
